According to US4294845A, “1,3-Benzodioxin derivatives” (priority 1978, dated 1981):

Columns and labels:
[1] = Acute toxicity in mice (intraperitoneal, DL50); assay type: in vivo; conditions: mouse, in vivo, ip, observed for one week
Protocol: (§1) The acute toxicity was determined on groups of 5 mice weighing about 18 to 22 g and the test products were intraperitoneally administered in suspension in an aqueous carboxymethylcellulose.

[2] = tested on: levels of triglycerides, cholesterol and total lipids; assay: Hypolipemiant activity: plasma lipid levels in rats on a saccharose and cholesterol-rich regime, 10 days treatment; assay type: in vivo, male rats of the Sprague Dawley S.P.F. strain; conditions: esophague tube, vs untreated controls
Protocol: This test was effected on groups of 8 male rats of the Sprague Dawley S.P.F. strain weighing about 200 g and the animals received a regime containing 50% of saccharose and which was rich in cholesterol (1%). The rats were treated over 10 days with the test products which were administered through an esophague tube as a suspension in water containing carboxymethylcellulose. The animals were killed 16 hours after the last administration of the test product by an abdominal puncture and from the blood sample with sodium heparinate, the levels of triglycerides, cholesterol and total lipids were determined by the following methods.
The triglyceride level was determined by the semi-automatic technique of Kessler et al [Automation in Analytical Chemistry, 1965, p. 341] modified by Claude et al [Ann. Biol. Clin., Vol. 26 3-4 (1968), p. 451]. The cholesterol levels were determined by the technique of Levine [Symposium Technicon, Vol. I. (1967), p. 25] adapted to auto-analyzer system I. The nephelometric level of total lipids was determined semi-automatically by the method of Girard et al [Symposium Technicon, 1970]. The variations expressed in percentages of the level of triglycerides, cholesterol and total lipids after administration of the various dosage of the test products in the treated animals as compared to the untreated controls and the results are reported in Table I.

mice = assay: Acute toxicity in mice (intraperitoneal, DL50); assay type: in vivo; conditions: observed for one week, 10080 min
Protocol: as §1

Structure (SMILES) | LD50 at 168 h [1] [mg/kg] | % Variation of levels, Cholesterol ([2]; 5 mg/kg/day) [%] | % Variation of levels, Total Lipids ([2]; 5 mg/kg/day) [%] | % Variation of levels, Triglycerides ([2]; 5 mg/kg/day) [%] | DL50 (mice) [mg/kg] | % Variation of levels, Cholesterol ([2]; 2 mg/kg/day) [%] | % Variation of levels, Total Lipids ([2]; 2 mg/kg/day) [%] | % Variation of levels, Triglycerides ([2]; 2 mg/kg/day) [%] | % Variation of levels, Cholesterol ([2]; 1 mg/kg/day) [%] | % Variation of levels, Total Lipids ([2]; 1 mg/kg/day) [%] | % Variation of levels, Triglycerides ([2]; 1 mg/kg/day) [%]
CC1(c2ccccc2)OC(C(=O)O)Oc2ccc(Cl)cc21 (racemic) [Example 1, 6-chloro-4-methyl-4-phenyl-[4H]-1,3-benzodioxin-2-carboxylic acid] | 130 | -22 | -26 | -11 | – | – | – | – | – | – | –
CC1(c2ccccc2)OC(C(=O)O)Oc2ccc(Cl)cc21 (racemic) [Example 3, 6-chloro-4-methyl-4-phenyl-[4H]-1,3-benzodioxin-2-carboxylic acid] | – | – | – | – | 150 | -36 | -38 | -12 | – | – | –
CCOC(=O)C1Oc2ccc(Cl)cc2C(C)(c2ccccc2)O1 (single isomer, unassigned) [16 Isomer A] | ~800 | – | – | – | – | -17 | -25 | -32 | – | – | –
CC1(c2ccccc2)OC(C(=O)O)Oc2ccc(Cl)cc21 (single isomer, unassigned) [17 Isomer A] | ~200 | – | – | – | – | -43 | -47 | -57 | – | – | –
CC1(c2ccccc2)OC(C(=O)O)Oc2ccc(Cl)cc21 (single isomer, unassigned) [18 Isomer A 1 form] | ~250 | – | – | – | – | -47 | -53 | -53 | – | – | –
COC(=O)C1Oc2ccc(Cl)cc2C(C)(c2cccc(Cl)c2)O1 (single isomer, unassigned) [20 Isomer A] | ≤ 1000 | – | – | – | – | – | – | – | -36 | -32 | -13
CC1(c2cccc(Cl)c2)OC(C(=O)O)Oc2ccc(Cl)cc21 (single isomer, unassigned) [21 Isomer A] | ~150 | – | – | – | – | – | – | – | -11 | -25 | -62
CN(C)CCOC(=O)C1Oc2ccc(Cl)cc2C(C)(c2ccccc2)O1 (single isomer, unassigned) [41 Isomer A] | ~200 | -40 | -49 | -43 | – | – | – | – | – | – | –
